Patent US5470877A, “Uses of perillic acid methyl ester” (Wisconsin Alumni Research Foundation, priority 1994, dated 1995)

How the values were obtained:
[1] = Tolerability in nude mice (National Cancer Institute); format: in vivo
Description: In an extension of our work, the National Cancer Institute has studied the effect of perillyl alcohol doses in nude mice using an oral bid ×14 day schedule. […] Perillyl alcohol was also administered in PEG400 at the same dose levels.

[2] = Acute oral toxicity in rats; format: in vivo, Wistar-Furth rat; settings: 1:1 sesame oil
Description: When POH was given in an acute manner (a single oral dose, 1:1 mix with sesame oil, for 5 days), the following was observed: After 300 mg total POH dose, 2 out of 5 rats died within 24 hours. After a 200 mg total POH dose, 2 out of 5 rats died within 24 hours. After a 100 mg total POH dose, 5 out of 5 rats tolerated 5 days with weight loss.

NIH3T3 cells = test: NIH3T3 cell growth inhibition (FIG. 3); format: cell-based, mouse; settings: NIH3T3 (murine) cells
Description: NIH3T3 (mouse embryo) cells were obtained from the American Type Culture Collection and were grown in Dulbecco's modified Eagle's medium supplemented with 10% calf serum. M600B immortalized human mammary epithelial cells (Stampfer, M.R., 1985, J. Tissue Culture Methods 9:107-115) were, obtained from Dr. Martha Stampfer and were grown in supplemented HCDB 170 medium (Hammond, et al. (1984) Proc. Natl. Acad. Sci U.S.A. 81:5435-5439), as described previously (Stampfer, et al. (1985) Proc. Natl. Acad. Sci U.S.A. 82:2394-2398; Eldridge, et al. (1989) Cancer Res. 49:4326-4331).
All cells were maintained in 100-mm dishes at 37° C. in a humidified 5% CO2 atmosphere. Viable cells were distinguished from nonviable cells by counting azure II/methylene blue-stained colonies 10 days after the cells were plated at a density of 100 cells per dish. Trypan blue exclusion was measured by incubating cells for 1 min with one drop of trypan blue per 10 ml of cells. Viable (colorless) and nonviable (blue) cells were then counted on a hemocytometer.
We examined the effect of several of the terpenes on certain types of cell growth. […] Additionally, growth of HT29 (human colon adenocarcinoma) cells was inhibited by 80% by 1 mM perillyl alcohol.

21-26 kDa proteins = test: Protein isoprenylation inhibition in NIH3T3 cells (SDS-PAGE fluorography); format: cell-based, mouse
Description: "Isoprenylation" is the addition of a multiple of the 5 carbon isoprene unit to a protein. Our experiments in isoprenylation are reported at Crowell, et al. 1991, J. Biol. Chem. 266:17679-17685. To test whether a specific monoterpene affects isoprenylation of proteins in cells, […] were incubated with a radioactive isoprene precursor and 0-5 mM of the test monoterpene and then subjected to SDS-PAGE. Because they carried a radioactive label, isoprenylated proteins were visualized by fluorography. As a control, cells were incubated without the monoterpene.
Cells were harvested after trypsin treatment, washed twice with phosphate-buffered saline, suspended in electrophoresis sample buffer (Laemmli, U.K., 1970, Nature 227:680-685), and either analyzed immediately or stored at -20° C. Whole cell extracts were analyzed by SDS-PAGE on 16-cm×18-cm×0.75-mm gels by the method of Laemmli (supra). The acrylamide concentrations were 5% for the stacking gel and 12% for the separating gel. Gels were stained with Coomassie Brilliant Blue, equilibrated for 20 min in Amplify (Amersham Corp.) fluorographic reagent, dried under vacuum at 65° C., and exposed to preflashed Kodak X-Omat AR film as described by Laskey and Mills (1975, Eur. J. Biochem, 56:335-341). Some fluorograms were analyzed further by densitometry. Where indicated, gels were sliced, dissolved at 50° C. for 3 hours in 0.5 ml of water+0.5 ml of Solvable (Amersham), and then analyzed by scintillation spectrometry in 10 ml of Atom light (Amersham) mixture. Protein content was measured by the method of Lowry, et al. (1951, J. Biol. Chem. 193:265-275).
FIG. 1 depicts the structures of certain monoterpenes.
The degree of isoprenylation was evaluated by the amount of labeled protein present in the 21-26 kDa range, as evidenced by fluorography.

[3] = tested on: DMBA-induced rat mammary carcinomas; test: Regression of DMBA-induced mammary carcinomas, pair-feeding study; format: in vivo, Wistar-Furth rat; settings: for Time to Regress (wks): primary carcinoma, footnote: Kaplan-Meier estimate of time when 25% regressed
Description: We used Wistar-Furth female rats for in vivo studies. Wistar-Furth female rats were obtained from Harlan Sprague-Dawley, Inc., (Madison, Wis.). All rats, arriving at 43-48 days of age, were housed at four rats per cage in wire-bottom metal cages and all were maintained with a light/dark cycle of 12 hours. Rats were provided Teklad Lab blox chow and acidified water ad libitum.
After one week of acclimation, the carcinogen DMBA was administered to the rats, which were 50-55 days old at this point. The DMBA was dissolved in a stock solution of 20 mg DMBA/ml sesame oil, heated and allowed to cool to room temperature before administration. DMBA (Eastman Kodak, Rochester, N.Y.) was given as a single gastric intubation of 50 mg DMBA/kg rat body weight.
In the pair-feeding study, a group of 70 mammals was treated with DMBA. Beginning four weeks post carcinogen administration, mammals were weighed and palpated weekly. Upon palpation of the first mammary carcinoma (diameter≥3 mm), mammals were randomly assigned to control or 2.5% (w/w) perillyl alcohol diet and pair-fed.
Perillyl alcohol (>96% pure by GC analysis, Aldrich, Milwaukee, Wis.) and Teklad 4% mouse/rat diet meal were thoroughly mixed and stored at -20° C. Fresh diets were made every 7-10 days. All mammals were provided fresh diet daily to minimize evaporation of the monoterpenes. For pair-feeding, the quantity of diet consumed by the monoterpene-fed mammals was measured every 24 hours and the assigned partner was pair-fed accordingly.
In the pair-feeding study, all palpable mammary carcinomas were classified as either "primary" tumors (i.e, the first tumor(s) palpated with a minimum diameter of 3 mm) or "secondary" tumors (i.e. a palpable tumor arising after initial diet assignment). At diet assignment, some mammals had more than one primary tumor. All carcinogen-exposed mammals not bearing a first palpable tumor by week 15 post-carcinogen were removed from the experiment. Complete regression of a tumor was defined as non-palpability for a minimum of three consecutive weeks. All mammals in the pair-feeding study were followed for a minimum of 10 weeks post-diet assignment for tumor growth or regression at primary tumor sites and all other mammary glands. The rats were necropsied if moribund. Complete necropsies were performed on all rats at the termination of the study. Greater than 95% of tumors remaining at the autopsy date were diagnosed as mammary carcinomas based on gross and histopathological criteria.

[4] = 10% limonene diet or 2.5% POH diet

SMILES: C=C(C)[C@@H]1CC=C(CO)CC1 [perillyl alcohol]
- weight loss ([1]; 0.5 g/kg/treatment oral bid, sesame oil): No weight loss
- course of weight loss ([1]; 1.0 gram/kg/treatment oral bid, after day 10): the weight loss leveled off
- average body weight lost ([1]; 1.0 gram/kg/treatment oral bid, diluted 1:1 in sesame oil, day 10): 3 g
- lethality ([1]; in PEG400, same dose levels): Lethality was observed
- rats that tolerated 5 days with weight loss ([2]; 100 mg total POH dose): 5 out of 5
- rats died within 24 hours ([2]; 200 mg total POH dose): 2 out of 5
- rats died within 24 hours ([2]; 300 mg total POH dose): 2 out of 5
- inhibition of cell growth (NIH3T3 cells): significantly inhibited cell growth in a dose-dependent manner
- ability to inhibit isoprenylation within test panel (21-26 kDa proteins; 1 mM, 21-26 kDa range): greatest ability to inhibit isoprenylation
- inhibition of isoprenylation in all cases examined (21-26 kDa proteins; all cell types examined): inhibition of isoprenylation
- Primary carcinoma regression (%) [3, 4]: 81%
- Secondary carcinoma regression (%) [3, 4]: 0%
- Secondary carcinoma regression (tumors regressed / tumors) [3, 4]: 01/1
- Secondary carcinomas/rat [3, 4]: 0.04
- development of secondary carcinomas ([3]; after initial diet assignment): limited the development of secondary carcinomas
- Time to Regress (wks) [3]: 3.6 wks
- Time to Regress (wks) ([3]; listed as POH): 3.6 ± 0.3 wks
- amount of perillyl alcohol needed relative to limonene ([3]; to achieve these regression results): 25%
